In publication PMC3153577 (Biochemistry, 2011):
Like-named read-outs stand apart in the source and are kept apart here.

Columns and labels:
[1] = target: T1, MtDHFR-NADPH (Mycobacterium tuberculosis, UniProt P9WNX1); settings: NADP^+ competition
T1 sequence (P9WNX1 1-161): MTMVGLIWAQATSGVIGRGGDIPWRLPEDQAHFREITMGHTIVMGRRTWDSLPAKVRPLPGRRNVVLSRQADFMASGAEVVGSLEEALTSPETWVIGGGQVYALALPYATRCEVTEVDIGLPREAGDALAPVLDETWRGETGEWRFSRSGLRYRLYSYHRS

[2] = target: T2, MtDHFR (Mycobacterium tuberculosis, UniProt P9WNX1)
T2 sequence (P9WNX1 1-161): T1 sequence (P9WNX1 1-161)

[3] = target: T3, MtDHFR-NADP^+ (Mycobacterium tuberculosis, UniProt P9WNX1); type: binding; settings: for koff: competitor NADPH
T3 sequence (P9WNX1 1-161): T1 sequence (P9WNX1 1-161)

[4] = NADPH dissociation from MtDHFR-NADPH-THF
[5] = NADPH dissociation from MtDHFR-NADPH

Structure (SMILES) | k−4, value obtained by analytical fitting [1, 4] | k−10, value obtained by analytical fitting [1, 5] | k4, best-fit value – global fitting ([2]; NADPH association to MtDHFR-THF, not determined experimentally) | k−10, best-fit value – global fitting [2, 5] | k−4, best-fit value – global fitting [2, 4] | k12, value obtained by analytical fitting ([3]; NADP^+ dissociation from MtDHFR-NADP^+-DHF, NADPH competition) | k3, value obtained by analytical fitting ([3]; NADP^+ dissociation from MtDHFR-NADP^+-THF, NADPH competition) | k9, value obtained by analytical fitting ([3]; NADP^+ dissociation from MtDHFR-NADP^+, NADPH competition) | koff ([3]; NADP^+ from MtDHFR-NADP^+-DHF) | koff ([3]; NADP^+ from MtDHFR-NADP^+-THF) | koff ([3]; NADP^+ from MtDHFR-NADP^+) | k−3, best-fit value – global fitting ([2]; NADP^+ association to MtDHFR-THF, not determined experimentally) | k−9, best-fit value – global fitting ([2]; NADP^+ association to free enzyme, linked to k9 based on KNADP = 0.33 μM) | k9, best-fit value – global fitting ([2]; NADP^+ dissociation from MtDHFR-NADP^+) | k12, best-fit value – global fitting ([2]; NADP^+ dissociation from MtDHFR-NADP^+-DHF) | k3, best-fit value – global fitting ([2]; NADP^+ dissociation from MtDHFR-NADP^+-THF)
NC(=O)C1=CN([C@@H]2O[C@H](COP(=O)(O)OP(=O)(O)OC[C@H]3O[C@@H](n4cnc5c(N)ncnc54)[C@H](OP(=O)(O)O)[C@@H]3O)[C@@H](O)[C@H]2O)C=CC1 [NADPH, nicotinamide adenine dinucleotide phosphate (reduced form)] | 1.7 ± 0.6 s⁻¹ | 0.13 ± 0.01 s⁻¹ | 1.01e+08 M⁻¹ s⁻¹ | 0.08 ± 0.01 s⁻¹ | 1.1 ± 0.1 s⁻¹ | – | – | – | – | – | – | – | – | – | – | –
NC(=O)c1ccc[n+]([C@H]2O[C@@H](COP(=O)([O-])OP(=O)(O)OC[C@H]3O[C@@H](n4cnc5c(N)ncnc54)[C@H](OP(=O)(O)O)[C@@H]3O)[C@H](O)[C@@H]2O)c1 [NADP^+, nicotinamide adenine dinucleotide phosphate (oxidized form)] | – | – | – | – | – | 7.8 ± 0.1 s⁻¹ | 8.02 ± 0.02 s⁻¹ | 98 ± 4 s⁻¹ | 7.8 ± 0.1 s⁻¹ | 8.0 ± 0.1 s⁻¹ | 97.6 ± 4.1 s⁻¹ | 1.09e+08 ± 6e+06 M⁻¹ s⁻¹ | 2.68e+08 ± 7e+06 M⁻¹ s⁻¹ | 81 ± 2 s⁻¹ | 2.1 ± 0.2 s⁻¹ | 7.3 ± 0.1 s⁻¹
